3 compounds from US20250099427A1, “Drug and Method of Treating or Preventing Renal Disease Using Drug” (Showa University, priority 2018, published 2025) can be followed below.

What all share (type): in vivo, mouse
Experiment [1] deals with Acute Renal Failure Animal Model. Kind of experiment: Test using acute renal failure animal model (renal ischemia and reperfusion), renal function parameters. As to conditions: for Cer: creatinine clearance; for FENa: fractional excretion of sodium; for KW: kidney weight. An excerpt:
A male ddY strain mouse (30 g) was used as an experimental animal. Under anesthesia with isoflurane, the right flank was incised about 2 cm to expose the kidney. After ligating the renal arteries and veins and the ureter, the right kidney was isolated.
A recovery period of 2 weeks was given, and then an acute renal failure mouse model was produced. Under anesthesia with isoflurane, the left abdomen was incised about 3 cm to expose the left kidney, and the fat around the renal arteries and veins was removed. The blood flow in the left renal arteries and veins was blocked using an atraumatic clip, and the kidney was left in ischemia for 45 minutes. The blood flow was then reperfused by removing the atraumatic clip, the kidney was returned to the abdominal cavity, and the flank was sutured. Mice similarly subjected to the steps other than the ischemia and reperfusion steps using the atraumatic clip were designated as a sham group (eight mice).
After 15 minutes of the initiation of ischemia, the vehicle, SMTP-7, SMTP-27, SMTP-44D, and edaravone were continuously administered to the femoral vein for 30 minutes.
24 hours after the ischemia and reperfusion processes, urine was collected for 24 hours using a metabolic cage, and the urinary output (UF; μL/min/kg) was measured. During collecting urine, only water was freely given. After urine collection, the body weight of each mouse was measured, and blood was collected from the abdominal aorta under anesthesia with isoflurane. After blood collection, the left kidney was isolated and the fat was removed in physiological saline. The kidney weight (KW; mg/g) was measured, and then the kidney was fixed in a 10% neutral buffered formalin solution for Hematoxylin Eosin (HE) staining.
The collected blood was centrifuged at 800×g for 15 minutes at 25° C. to collect serum. Further, the urine collected using a metabolic cage was also used to evaluate renal function. In order to evaluate parameters in the serum, blood urea nitrogen (BUN; mg/dL) was measured using a QuantiChrom Urea Assay Kit (Funakoshi Co., Ltd.). Serum creatinine concentration (Scr; mg/dL) and urinary creatinine concentration (Ucr; mg/dL) were measured using LabAssay (trademark) Creatinine (manufactured by Wako Pure Chemical Industries, Ltd.), and creatinine clearance (Ccr; mL/min/kg) was calculated. The concentrations of sodium in the serum and urine were measured using Fuji Dry Chem 7000 (manufactured by FUJIFILM Corporation), and fractional excretion of sodium (FENa; %) was calculated. Urinary albumin concentration (Ualb; mg/hr/kg) was measured using Albwel M (manufactured by Cosmo Bio Co., Ltd.).
In Table 11, the experimental results are expressed in mean±standard error in eight mice in each group. For comparison among multiple groups, firstly, one-way analysis of variance (ANOVA) was conducted, and then a Bonferroni test was conducted, if significant difference was recognized. Significant difference was recognized with a significance level of less than 5% (P<0.05).

Experiment [2] relates to Chronic Renal Failure Animal Model. As to the kind of experiment: Test using chronic renal failure animal model (nephrectomy + acetic acid application), renal function parameters. As to conditions: Table 10 experiment (edaravone instead of SMTP-7); 30 mg/kg, same regimen as the SMTP-7 30 mg/kg group. On the procedure: A male ddY strain mouse (body weight: 30 g to 40 g) was used. Under anesthesia with isoflurane, the right flank of the mouse was incised, the renal arteries and veins were ligated, and then the right kidney was isolated. After suturing, acrinol was applied to the suture site as a disinfection treatment, and enrofloxacin was subcutaneously administered at 5 mg/kg as a preventive measure against infection, and acetaminophen was subcutaneously administered at 75 mg/kg as an analgesic treatment. After a recovery period of 3 to 4 weeks, the left abdomen of the mouse was incised, 100% acetic acid was applied to both sides of the kidney 10 times. This was defined as one course, and two courses were conducted at 5 minute intervals. After suturing, postoperative treatment was conducted in the same manner as in the removal of one of the kidneys. Considering the effect of surgery, a sham group to which acetic acid was not applied was provided.
4 weeks after the application of acetic acid, SMTP-7 was administered at a dose of 10 mg/kg or 30 mg/kg. The administration was carried out three times a week for 8 consecutive weeks by intraperitoneal administration. In addition, physiological saline was similarly administered to the sham group (without acetic acid application) and the Control group (with acetic acid application).
12 weeks after the application of acetic acid, urine was collected for 24 hours using a metabolic cage, and the urinary output was measured. During collecting urine, water was freely given. After urine collection, blood was collected from the descending aorta, the collected blood was centrifuged at 3000 rpm for 15 minutes, serum was separated, and BUN (urea nitrogen) and sCr (serum creatinine value) were measured. Further, protein and creatinine in the urine were also measured to calculate creatinine clearance (Ccr). BUN was measured using Urea B-test Wako (manufactured by Wako Pure Chemical Industries, Ltd.) and a QuantiChrom Urea Assay Kit (manufactured by Funakoshi Co., Ltd.), sCr was measured using Lab Assay Creatinine (manufactured by Wako Pure Chemical Industries, Ltd.), and urinary protein was measured using a BCA Protein assay kit (Thermo Fisher Scientific).
Renal function was evaluated by measuring BUN, sCr, urinary output, and urinary protein. In addition, urinary creatinine was measured to calculate creatinine clearance (Ccr).
In Table 9, the experimental results are expressed in mean±standard error. With reference to statistically significant difference, an unpaired test between two groups (Student's t-test) was conducted for comparison between two groups, and one-way analysis of variance was conducted and then a Dunnett test was conducted for comparison among multiple groups. In all cases, a significance level of 5% or less (P<0.05) was regarded as significant difference.
The experiment and evaluation were carried out in the same manner as in the SMTP-7 (30 mg/kg) administration group, except that edaravone (30 mg/kg) was administered instead of SMTP-7 in the SMTP-7 (30 mg/kg) administration group.

For experiment [3], the system named is Acute Renal Failure Animal Model. As to the kind of experiment: Acute renal failure animal model, pathological tissue specimen (HE staining) lesion scores. Conditions: 3 mg/kg. How it is done: 24 hours after the ischemia and reperfusion processes, urine was collected for 24 hours using a metabolic cage, measurement of body weight was conducted, and blood was collected. Thereafter, nephrectomy was conducted, and formalin-fixed kidney was permeated with paraffin using an automatic embedding device to produce a paraffin block. The paraffin block was sliced into 3 μm sections with a microtome, and placed on a slide glass. Then, the sections were stretched with a paraffin stretcher at 52° C., and sufficiently dried overnight in a paraffin melter at 37° C. After deparaffinization and washing with water, the sections were stained with a Mayer's hematoxylin staining solution for 1 minute and washed with running water for 15 minutes. Thereafter, the sections were stained with an eosin staining solution for 45 seconds, and dehydrated with 80% to 100% ethanol, followed by clearing with xylene and sealing with marinol. Each specimen was examined microscopically at a magnification of 50 using an optical microscope. With respect to tubular dilatation, tubular necrosis, and tubular casts in the cortex, outer zone of outer medulla, and inner zone of outer medulla, the percentage of lesions in each site was evaluated according to the following criteria.
In Table 12, the experimental results are expressed in mean±standard error in eight mice in each group. For comparison among multiple groups, firstly, one-way analysis of variance (ANOVA) was conducted, and then a Bonferroni test was conducted, if significant difference was recognized. Significant difference was recognized with a significance level of less than 5% (P<0.05).

Setting [4] is: 30 mg/kg continuous femoral vein 30 min from 15 min after start of 45 min ischemia, mean±SE, 8 mice.
[5] abbreviates: 30 mg/kg, acute renal failure model.
[6] abbreviates: 30 mg/kg continuous femoral vein 30 min from 15 min after start of 45 min ischemia, mean±SE, 8 mice, 30 mg/kg.
Setting [7] is: urinary albumin, 30 mg/kg continuous femoral vein 30 min from 15 min after start of 45 min ischemia, mean±SE, 8 mice.
Where [8] appears, read: urinary output, 30 mg/kg continuous femoral vein 30 min from 15 min after start of 45 min ischemia, mean±SE, 8 mice.
[9] abbreviates: 3 mg/kg continuous femoral vein 30 min from 15 min after start of 45 min ischemia, mean±SE, 8 mice.
The mark [10] stands for this setting: 3 mg/kg, acute renal failure model.
The mark [11] stands for this setting: 3 mg/kg continuous femoral vein 30 min from 15 min after start of 45 min ischemia, mean±SE, 8 mice, 3 mg/kg.
Setting [12] is: points 0 (no lesion) to 4 (severe, 50% or more), mean±SE, 8 mice.

Regarding `CC(C)=CCC/C(C)=C/CCC1(C)Oc2c(c(O)cc3c2CN(c2cc(C(=O)O)ccc2O)C3=O)CC1O` (stereo not drawn) [SMTP-27], in experiment [1] (setting [4]), the BUN came out at 59.7 ± 10.5 mg/dL and the Scr stood at 0.5 ± 0.0 mg/dL. In experiment [1] (setting [5]), this compound showed a UF of 4.67 ± 0.984 mL/h/kg and a Ualb of 2.0 ± 0.4 mg/h/kg. Also, in experiment [1] (setting [6]), the Cer stood at 150 ± 6 mL/h/kg, the FENa stood at 0.8±0.1% and the KW amounted to 13.8 ± 0.7 mg/g. In experiment [1] (setting [7]), this compound registered a Ualb of 2 ± 0.4 mg/h/kg. Moreover, the UF in experiment [1] (setting [8]) was determined as 4.67 ± 0.984 mL/h/kg.
In experiment [1] (setting [4]), `CC(C)=CCCC(C)=CCCC1(C)Oc2c(c(O)cc3c2CN(C(C(=O)O)c2ccc(O)cc2)C3=O)CC1O` (stereo not drawn) [SMTP-44D] yielded a BUN of 55.7 ± 14.2 mg/dL and a Scr of 0.6 ± 0.1 mg/dL. Besides, in experiment [1] (setting [5]), the UF was 6.192 ± 2.008 mL/h/kg and the Ualb came to 1.3 ± 0.3 mg/h/kg. In experiment [1] (setting [6]), this compound displayed a Cer of 138 ± 24 mL/h/kg, an FENa of 1.2±0.1% and a KW of 12.3 ± 1.2 mg/g. The Ualb in experiment [1] (setting [7]) is 1.3 ± 0.3 mg/h/kg. This compound also displayed a UF in experiment [1] (setting [8]) of 6.19 ± 2.02 mL/h/kg.
For the compound `CC1=NN(c2ccccc2)C(=O)C1` [edaravone, reference compound], in experiment [2], the Urinary output was determined as 3.77 ± 0.704 mL/h/kg and the Urinary protein is reported as 553 ± 109 mg/kg/day. Also, in experiment [1] (setting [9]), the BUN was 61.1 ± 5.9 mg/dL and the Scr turned out to be 0.5 ± 0.0 mg/dL. Further, in experiment [1] (setting [10]), the UF was 3.32 ± 0.726 mL/h/kg and the Ualb is 0.9 ± 0.2 mg/h/kg. In experiment [1] (setting [11]), the Cer was 126 ± 12 mL/h/kg, the FENa is 1.0±0.1% and the KW was found to be 13.4 ± 0.6 mg/g. The compound also registered a Ualb in experiment [1] (urinary albumin, 3 mg/kg continuous femoral vein 30 min from 15 min after start of 45 min ischemia, mean±SE, 8 mice) of 0.9 ± 0.2 mg/h/kg. The same compound registered a UF in experiment [1] (urinary output, 3 mg/kg continuous femoral vein 30 min from 15 min after start of 45 min ischemia, mean±SE, 8 mice) of 3.32 ± 0.726 mL/h/kg. The “Histopathological changes (lesion changes), result in words” value in experiment [3] (compared to control group) was “lesion changes were significantly improved only in tubular necrosis and tubular casts in the outer zone of outer medulla of the kidney and tubular casts in the inner zone of outer medulla”. Besides, in experiment [3] (setting [12]), the “Tubular cast score, Cortex” value was determined as 0.9 ± 0.1; the “Tubular cast score, Inner zone of outer medulla” value is on record as 1.5 ± 0.4; the “Tubular cast score, Outer zone of outer medulla” value amounted to 1.0 ± 0.2; the “Tubular dilatation score, Cortex” value amounted to 3.0 ± 0.5. In experiment [3] (setting [12]), the “Tubular dilatation score, Inner zone of outer medulla” value came to 2.4 ± 0.5; the “Tubular dilatation score, Outer zone of outer medulla” value came out at 2.4 ± 0.5; the “Tubular necrosis score, Cortex” value is recorded as 0.9 ± 0.1; the “Tubular necrosis score, Inner zone of outer medulla” value was determined as 0.9 ± 0.1. Further, the “Tubular necrosis score, Outer zone of outer medulla” value in experiment [3] (setting [12]) is reported as 0.9 ± 0.1.
